In patent US11136297B2, “Compositions and methods for treating cancer” (THE REGENTS OF THE UNIVERSITY OF CALIFORNIA, priority 2016, dated 2021):
Entries after “also recorded” stand apart in the source; their conditions may differ.

What was measured:
[1] = target: T1, full-length wild-type K-Ras (Homo sapiens, UniProt P01116); assay: Disulfide fragment labeling of full-length wild-type K-Ras (Cys 72 selectivity); type: binding; conditions: wild-type K-Ras contains 4 native cysteine residues
T1 construct: His6; made in house; host or cells: Escherichia coli BL21(DE3)

[2] = target: T2, H-Ras(M72C) activation by SOScat (Homo sapiens, UniProt P01112, M72C); assay: SOScat catalyzed nucleotide exchange read out by Raf-1-RBD pull-down; type: biochemical
T2 construct: and H-Ras (residues 1-166) were transformed into Escherichia coli; His6; made in house; host or cells: Escherichia coli BL21(DE3)
Description: (§1) FIGS. 29A-29D. […] FIG. 29D: Reconstruction of Ras cycle is achieved by inducing nucleotide exchange of 100 nM Ras by various concentrations of SOS^cat for either 1 or 2 hours and subsequent pull-down by Raf-1-RBD.
(§2) FIGS. 33A-33D. […] In FIG. 33B) through FIG. 33D), normalized pull-down signals are shown below the blot. S. E. M for each signal, number of replicates, and […] for each comparative Standard T-Test are summarized herein (see Tables 33B, 33C, and 33D). […] Comparative statistics were done for normalized pull-down signals between protein constructs of the same condition (i.e. in FIG. 33B) and FIG. 33C), column 1 for unlabeled and 1 for labeled protein, 2 for unlabeled and 2 for labeled, and so on were statistically compared, and in FIG. 33D) only the +SOS^cat and +GppNHp lanes were compared across protein constructs). FIG. 33A) Cartoon representation of pull down protocol. […] Reported values are quantified pull-down signals normalized to input. FIG. 33B) Cartoon representation of pull down protocol. […] FIG. 33C) Cartoon representation of pull down protocol. […] FIG. 33D) Cartoon representation of pull down protocol. Ras activation is achieved by catalyzing nucleotide exchange by SOS^cat and indirectly reading out activated Ras by subsequent pull down by Raf-1-RBD.

[3] = target: T3, H-Ras(M72C) GDP binding to SOScat (Homo sapiens, UniProt P01112, M72C); assay: Ras GDP in vitro pull down by His6 tagged SOScat
T3 construct: and H-Ras (residues 1-166) were transformed into Escherichia coli; His6; made in house; host or cells: Escherichia coli BL21(DE3)
Description: Ras GDP In Vitro Pull Down Assay by His6 Tagged SOS^CAT
This experiment was created based on a procedure published in Hall et al., 2001. For each SOS^CAT in vitro pull down the total volume was 500 μL. Each reaction had the following final composition: Either 20, 80, 200, 400, or 800 nM Ras GDP (from 0.2 mg/mL Ras stock), 75 nM BSA (2.5 μg, 5 μL of 0.5 mg/mL BSA stock), 200 nM of His6-SOS^CAT (6 μg, 3 μL of diluted 0.2 mg/mL stock of His6-SOS^CAT), and SOS^CAT Pull Down Buffer to volume (20 mM Tris (pH 7.6), 50 mM NaCl, 5 mM EDTA, 1% Triton X-100, 20 mM imidazole). Samples were then mixed by gentle rotation at 4° C. for 30 min. While equilibrating, add 50 μL Ni-NTA slurry (Qiagen) to a cellulose acetate spin cup and spin at 5,000 rpm on a tabletop centrifuge for 30 seconds. Wash the beads with 400 μL of SOS^CAT Pull Down Buffer to wash away bead storage buffer. Before adding each pull down solution, take 10 μL and save as a loading control sample. To each spin cup filled with washed Ni-NTA beads, add the remaining equilibrated pull down solution, seal the spin cup with parafilm and let rotate at 4° C. for 30 more minutes. After mixing, centrifuge the sample for 30 seconds at 5,000 rpm. Toss flow through. Wash the beads×5 with 400 μL of SOS^CAT Pull Down Buffer. After last wash, centrifuge one last time to remove any excess buffer stuck to the beads. To each cup, add 50 μL of 5×SDS loading buffer and mix by vortexing. Let the buffer sit on the beads for 5 minutes and then elute into a fresh tube by centrifuging at 5000 rpm for 1.5 minutes. Load 10 μL of each loading control sample and 25 μL of each eluted pull down onto a SDS-PAGE gel and transfer to a nitrocellulose blot for Western Blot analysis. Block with 5% BSA TBS buffer and then blot with pan Ras primary antibody at a 1:500 dilution in 5% BSA in TBST (Cell Signaling #3965). Blots were read out using LICOR compatible secondary antibodies and quantified. The largest input signal was normalized to one for each protein construct and each pull-down signal (i.e. 20 nM, 80 nM, 200 nM, 400 nM, and 800 nM respectively) was reported relative to that maximum signal. Thus, normalized pull-down signals represent the proportion of Ras pulled down relative to the maximum blot signal detected for that particular protein construct.

H-Ras(M72C) GppNHp [4] = target: T4, H-Ras(M72C) GppNHp (Homo sapiens, UniProt P01112, M72C); assay: EDTA catalyzed exchange and subsequent pull-down by Raf-1-RBD (nucleotide preference); type: biochemical; design: and H-Ras (residues 1-166) were transformed into Escherichia coli; His6; made in house; host or cells: Escherichia coli BL21(DE3); conditions: EDTA catalyzed exchange, then pull-down by Raf-1-RBD
Description: as §1, §2

H-Ras(M72C) GppNHp [5] = target: T4, H-Ras(M72C) GppNHp; assay: βME50 and percent labeling of tethering fragments, GppNHp state; type: binding; design: Labeling studies were conducted using the 1-166 H-Ras(M72C) construct containing all endogenous cysteines; His6; made in house; host or cells: Escherichia coli BL21(DE3)
Description: FIG. 32. […] Percent labeling against H-Ras(M72C) GDP and GppNHp at the screening βME concentration (1 mM) are graphed.
A tethering library of 960 disulfides were screened against 1-169 K-Ras(M72C) GDP using intact protein mass spectrometry to monitor percent modification (See Methods, and FIG. 37). […] To better prioritize tethering fragments, a βME50 value (the concentration of βME needed to reduce disulfide fragment modification to 50%) was determined for each compound. A higher βME50 value corresponds to a better fragment as it can bind with increasing concentrations of competitive thiol (Erlanson et al., 2004; Yang et al., 2009).

T1 sequence (P01116 1-188 isoform P01116-2): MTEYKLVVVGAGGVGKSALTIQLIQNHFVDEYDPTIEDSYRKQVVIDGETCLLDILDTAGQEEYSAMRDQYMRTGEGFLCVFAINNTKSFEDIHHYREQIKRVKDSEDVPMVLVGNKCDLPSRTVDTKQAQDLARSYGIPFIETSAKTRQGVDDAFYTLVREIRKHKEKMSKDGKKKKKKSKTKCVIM

modification of full-length wild-type K-Ras [1]: did not modify | Normalized Averaged Pull Down (SOS PD Assay) ([3]; H-Ras(M72C) 2C07, [Ras] printed 200 nM, input normalized 1.00): 0.09 | Normalized Averaged Pull Down (SOS PD Assay) ([3]; H-Ras(M72C) 2C07, [Ras] 20 nM): 0.002 | Normalized Averaged Pull Down (SOS PD Assay) ([3]; H-Ras(M72C) 2C07, [Ras] 80 nM): 0.01 | Normalized Averaged Pull Down (SOS PD Assay) ([3]; H-Ras(M72C) 2C07, [Ras] 200 nM): 0.03 | Normalized Averaged Pull Down (SOS PD Assay) ([3]; H-Ras(M72C) 2C07, [Ras] 400 nM): 0.06 | βME50 (H-Ras(M72C) GppNHp [5]; H-Ras(M72C) GppNHp, βME concentration that reduces fragment modification to 50%): 1.10 mM | labeling of H-Ras(M72C) GppNHp (H-Ras(M72C) GppNHp [5]; disulfide tethering at Cys 72): readily modifies
Compound: COc1ccc(-n2ncc(C(=O)NCCCSSCCN(C)C)c2C(F)(F)F)cc1 [Compound 2C07, N-(3-((2-(dimethylamino)ethyl)disulfanyl)propyl)-1-(4-methoxyphenyl)-5-(trifluoromethyl)-1H-pyrazole-4-carboxamide]
SOScat catalyzed nucleotide exchange [2]: inhibits activation of H-Ras by SOS^cat; also recorded: inhibits SOS^cat catalyzed nucleotide exchange | nucleotide preference (H-Ras(M72C) GppNHp [4]): alters intrinsic Ras affinity for nucleotide towards GDP; also recorded: alters Ras nucleotide preference
